According to the NIST ThermoML archive (doi:10.1016/j.jct.2016.10.009):

Test: xn = mol fraction of the nth substance listed
Details: Liquid, Vibrating tube method

CC(C)OC(C)C [diisopropyl ether] + CCC(C)O
mass density [kg/m3]
Details	x2 = 0	x2 = 0.2036	x2 = 0.3227	x2 = 0.4464	x2 = 0.4973	x2 = 0.6595	x2 = 0.8482
333.15 K, 45000 kPa	–	–	–	761.8	765.4	777.4	793.2
333.15 K, 50000 kPa	739.1	750.4	757.8	765.7	769.2	781.1	796.6
333.15 K, 55000 kPa	743.1	754.3	761.6	769.4	772.9	784.5	799.8
333.15 K, 60000 kPa	747.1	758	765.2	772.9	776.4	787.9	803
333.15 K, 65000 kPa	750.9	761.7	768.8	776.4	779.8	791.2	806
333.15 K, 70000 kPa	754.4	765.1	772.1	779.7	783.1	794.3	808.9
333.15 K, 80000 kPa	761.3	771.8	778.6	785.9	789.2	800.2	814.6
333.15 K, 90000 kPa	767.7	778	784.7	791.9	795.1	805.9	820
333.15 K, 100000 kPa	773.7	783.7	790.3	797.4	800.5	811.1	824.9
333.15 K, 110000 kPa	779.4	789.3	795.8	802.7	805.9	816.1	829.8
333.15 K, 120000 kPa	784.7	794.5	800.9	807.7	810.8	820.9	834.3
333.15 K, 130000 kPa	789.9	799.5	805.9	812.5	815.6	825.6	838.8
333.15 K, 140000 kPa	794.8	804.2	810.4	817	820	830	842.9
353.19 K, 100 kPa	–	672.3	682	692.5	–	712.8	732.9
353.19 K, 1000 kPa	659.5	674.1	683.6	694.1	698.7	714.2	734.2
353.19 K, 5000 kPa	667.6	681.5	690.7	700.7	705.1	720	739.3
353.19 K, 10000 kPa	676.5	689.7	698.5	708	712.3	726.7	745.2
353.19 K, 15000 kPa	684.4	697.1	705.5	714.7	718.9	732.8	750.7
353.19 K, 20000 kPa	691.5	703.8	711.9	720.9	724.9	738.3	755.8
353.19 K, 25000 kPa	698	709.9	717.9	726.6	730.4	743.5	760.6
353.19 K, 30000 kPa	704	715.7	723.4	731.9	735.7	748.5	765.1
353.19 K, 35000 kPa	709.7	721	728.6	736.8	740.6	753.1	769.3
353.19 K, 40000 kPa	714.8	725.9	733.3	741.5	745.1	757.3	773.4
353.19 K, 45000 kPa	719.7	730.8	738	745.9	749.5	761.5	777.3
353.19 K, 50000 kPa	724.6	735.3	742.4	750.3	753.8	765.6	781
353.19 K, 55000 kPa	728.9	739.4	746.5	754.3	757.7	769.4	784.5
353.19 K, 60000 kPa	733.2	743.6	750.5	758.1	761.6	773	788
353.19 K, 65000 kPa	737.2	747.6	754.3	761.9	765.2	776.6	791.3
353.19 K, 70000 kPa	741.1	751.3	758	765.5	768.8	780	794.6
353.19 K, 80000 kPa	748.4	758.3	765	772.2	775.4	786.3	800.5
353.19 K, 90000 kPa	755.4	765.1	771.5	778.6	781.8	792.4	806.4
353.19 K, 100000 kPa	761.6	771.2	777.6	784.5	787.6	798	811.8
353.19 K, 110000 kPa	767.8	777.1	783.4	790.2	793.3	803.5	816.9
353.19 K, 120000 kPa	773.4	782.6	788.8	795.5	798.5	808.6	821.8
353.19 K, 130000 kPa	778.8	787.8	793.9	800.6	803.5	813.4	826.5
353.19 K, 140000 kPa	784	792.9	798.9	805.4	808.4	818.2	831
373.24 K, 1000 kPa	635.6	649.8	659.4	670	674.8	690.8	711.2
373.24 K, 5000 kPa	645.5	659	668	678.1	682.5	697.8	717.4
373.24 K, 10000 kPa	656.1	668.7	677.2	686.9	691.1	705.6	724.3
373.24 K, 15000 kPa	665.3	677.4	685.5	694.7	698.8	712.7	730.7
373.24 K, 20000 kPa	673.5	685.1	–	–	–	–	–
